One series can be described thus: clinical. To be noted: human, in vivo, Mean.
The next series relates to Ang2. To be noted: patients with metastatic RCC under sunitinib treatment; cited from earlier work.

Broadly, the AUC(0-t) is exposure summed from dosing to a finite time, without extrapolation to infinity. Lower therefore signals less exposure. Broadly, the Cmax is the highest concentration seen after dosing. For orientation: Tmax means the time at which the peak concentration occurs. `CNC(=O)c1cc(Oc2ccc(NC(=O)Nc3ccc(Cl)c(C(F)(F)F)c3)cc2)ccn1` [Sorafenib, sorafenib]: the area under the curve AUC(0-t) turned out to be 2580 ng·h/mL in “clinical” (3 mg/kg, Sorafenib AUC (AUC0-12)) and 3130 ng·h/mL in “clinical” (10 mg/kg, Sorafenib AUC (AUC0-12)). In addition, the Cmax in “clinical” (3 mg/kg, Sorafenib Cmax) was determined as 466 ng/mL; in the series “clinical” (10 mg/kg, Sorafenib Cmax), 559 ng/mL. Also, the time of peak concentration (Tmax) in “clinical” (3 mg/kg, Sorafenib Tmax) was 1.1 h; in “clinical” (10 mg/kg, Sorafenib Tmax), 1 h.

`CCN(CC)CCNC(=O)c1c(C)[nH]c(/C=C2\C(=O)Nc3ccc(F)cc32)c1C` [Sunitinib, sunitinib]: the AUC(0-t) in “clinical” (3 mg/kg, Sunitinib AUC (AUC0-24)) worked out at 1300 ng·h/mL; in the series “clinical” (10 mg/kg, Sunitinib AUC (AUC0-24)) it was 1250 ng·h/mL. Also, the Cmax in “clinical” (3 mg/kg, Sunitinib Cmax) came out at 64.2 ng/mL; in the series “clinical” (10 mg/kg, Sunitinib Cmax) it was 61.8 ng/mL. Also, the time of peak concentration (Tmax) came out at 8 h in “clinical” (3 mg/kg, Sunitinib Tmax) and 8.1 h in the series “clinical” (10 mg/kg, Sunitinib Tmax). In the series with Ang2, the “decrease in plasma Ang2 levels” value is recorded as 80%.

The record behind these values is article PMC4754667 (Clinical genitourinary cancer, 2013).
